Where a SMILES comes first, the peptide text is derived from it. [ ]: non-standard residue; d: D form. Nle = CCCC[C@H](N)C(=O)O
Target: T1, human PTHR1-H223R (Homo sapiens, UniProt Q03431, H223R)
T1 construct: expressed in transfected cells; host or cells: GHR-10 (HEK-293 stably expressing GloSensor and PTHR1-H223R)
T1 sequence (Q03431 27-593 H223R): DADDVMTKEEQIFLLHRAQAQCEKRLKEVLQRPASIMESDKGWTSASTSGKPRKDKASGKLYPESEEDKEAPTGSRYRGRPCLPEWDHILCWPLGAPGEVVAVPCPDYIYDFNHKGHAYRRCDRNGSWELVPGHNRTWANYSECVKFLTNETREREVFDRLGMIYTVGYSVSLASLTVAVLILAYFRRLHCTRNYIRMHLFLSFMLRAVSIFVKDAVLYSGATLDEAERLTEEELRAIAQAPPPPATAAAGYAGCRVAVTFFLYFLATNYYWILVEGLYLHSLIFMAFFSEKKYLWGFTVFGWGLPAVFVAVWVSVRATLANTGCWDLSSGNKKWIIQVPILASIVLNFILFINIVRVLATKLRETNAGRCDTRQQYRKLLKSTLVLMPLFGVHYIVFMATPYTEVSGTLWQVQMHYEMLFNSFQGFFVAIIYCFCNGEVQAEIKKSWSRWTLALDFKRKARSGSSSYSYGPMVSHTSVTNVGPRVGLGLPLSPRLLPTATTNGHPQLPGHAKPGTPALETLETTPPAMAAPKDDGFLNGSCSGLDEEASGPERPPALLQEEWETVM
Assay: Inverse agonism on basal cAMP signaling in GHR-10 cells
Format: cell-based
Conditions: for Reduction of basal cAMP, % vehicle, After ligand washout / Reduction of basal cAMP, % vehicle, Ligand @ −6M: GHR-10 cells, from AUC, representative experiment; for Reduction of basal cAMP, % vehicle, After ligand washout: 26 minutes after washout of unbound ligand; for Reduction of basal cAMP, % vehicle, Ligand @ −6M: peptide 1×10^−6 M for 24 minutes
Experimental: cAMP signaling was assessed in the HEK293-derived or SaOS2-derived cell lines stably expressing the luciferase-based GloSensor™ cAMP reporter (Hattersley et al., Paper presented at: Novel Signaling Mechanisms and Bone Cell Biology 2014; Binkowski et al., Methods in molecular biology. 756:263-271). HEK-293 cells were further transfected to stably express the hPTHR1, hPTHR1-H223R, or hPTHR1-T410P. The cells were seeded into 96-well white plates and were assayed 24 to 48 hours post-confluency. Assays were performed at room temperature in CO2-independent culture media (Life Technologies, Corp., Carlsbad, Calif.) containing 0.1% BSA (CIDB). The cells were pre-loaded with luciferin (0.5 mM in CIDB) for 15 minutes, then PTH peptides were added at varying concentrations. cAMP-dependent luminescence was measured at two-minute intervals using a PerkinElmer Envision plate reader. The time at which maximum luminescence (cps) observed with agonist alone, typically at 10-20 minutes after agonist addition, was used to obtain data from wells containing antagonist with or without agonist, to thus generate antagonist ligand dose-response curves. The resulting cps values were then plotted against ligand concentration using GraphPad Prism 7.0 software and a four-parameter logistics curve fitting equation, which yielded parameters of inhibitory potency (pIC50).
These experiments were performed in HEK-293 cells stably transfected to express the GloSensor™ cAMP reporter along with a constitutively active mutant human PTHR1. The HEK-293 cells stably expressing GloSensor™ cAMP reporter along with a constitutively active mutant human PTHR1-H223R are GHR-10 cells. The HEK-293 cells stably expressing GloSensor™ cAMP reporter along with a constitutively active mutant human PTHR1-T410P are GTP-4 cells. The HEK-293 cells stably expressing GloSensor™ cAMP reporter along with a WT-PTHR1 are GP-2.3 cells. GP-2.3 cells were used as control. […] Effects on basal cAMP signaling over time were assessed during periods of direct ligand addition (FIGS. 15A-15F). The measurements were performed by recording GloSensor™ luminescence as counts per second (cps) using a PerkinElmer Envision plate reader. The data are illustrated in FIGS. 15A-15F. Data are from triplicate wells (means±SEM) of a single experiment representative of two others.
Persistence of the antagonist/inverse agonist effects (prolonged action) as follows. Effects of eight peptides on basal and PTH(1-34)-stimulated cAMP signaling by PTHR-H223R were assessed in GHR-10 cells (HEK-293-derived cells stably expressing glosensor cAMP reporter and PTHR1-H223R). Time courses of changes in cAMP levels were recorded in three consecutive phases:
1) after initial addition of a candidate antagonist/inverse agonist (1×10^−6 M-1×10^−9 M) to cells pre-loaded for […] with luciferin (left column);
2) after removal of unbound inverse agonist by extensive wash-out with buffer and replenishment with fresh luciferin-containing buffer (middle column); and
Control wells were treated with vehicle. GloSensor™ luminescence, as counts per second (cps), was recorded using a PerkinElmer Envision plate reader. Data are from duplicate wells (means±SEM) of a single experiment representative of two others. The results are illustrated in Table 7 and in FIGS. 16A-16C, 17A-17C, 18A-18C, 19A-19C, 20A-20C, 21A-21C, 22A-22C, and 23A-23C.
GHR10 cells were treated with vehicle or vehicle containing the indicated peptide for 24 minutes and cAMP-dependent luminescence was recorded at two-minute intervals. The cells were then washed to remove unbound ligand and media containing fresh luciferin was added, and cAMP luminescence was recorded for another 26 minutes. Percentage reduction was calculated from the area-under-the-curve (AUC) values derived from the time course plots using the equation: […]

With `CC[C@H](C)[C@H](NC(=O)[C@H](CCC(=O)O)NC(=O)[C@H](C)NC(=O)[C@@H](NC(=O)[C@H](Cc1c[nH]cn1)NC(=O)[C@@H](NC(=O)[C@H](CCC(=O)O)NC(=O)[C@H](C)NC(=O)[C@@H](NC(=O)[C@H](CC(C)C)NC(=O)[C@H](CCCCN)NC(=O)[C@H](Cc1c[nH]cn1)NC(=O)[C@H](CC(C)C)NC(=O)[C@H](Cc1c[nH]c2ccccc12)NC(=O)[C@H](C)NC(=O)[C@H](CCCNC(=N)N)NC(=O)[C@H](CCCNC(=N)N)NC(=O)[C@H](CCCNC(=N)N)NC(=O)[C@H](C)NC(=O)[C@H](CC(=O)O)NC(=O)[C@H](CCC(N)=O)NC(=O)[C@@H](NC(=O)[C@H](Cc1c[nH]c2ccccc12)NC(=O)[C@H](CCCCN)NC(=O)[C@@H](Cc1c[nH]c2ccccc12)NC(=O)[C@H](CCCNC(=N)N)NC(=O)[C@H](CCC(N)=O)NC(=O)[C@H](Cc1c[nH]cn1)NC(=O)[C@H](CCSC)NC(=O)[C@@H](N)CC(C)C)[C@@H](C)CC)[C@@H](C)CC)[C@@H](C)CC)[C@@H](C)O)C(N)=O` [compound 1990, dW12, W23-LA-PTH(7-36)-1990] (H-LMHQR[dW]KWIQDARRRAWLHKLIAEIHTAEI-NH2; N-terminus assumed) the “inverse agonist properties on constitutively active PTHR1-H223R (basal cAMP)” value (GHR-10 cells (HEK293/GloSensor)) was “inverse agonist response”, the “Reduction of basal cAMP, % vehicle, After ligand washout” value was 39 % vehicle and the “Reduction of basal cAMP, % vehicle, Ligand @ −6M” value was 50 % vehicle.
With `CC[C@H](C)[C@H](N)C(=O)N[C@@H](CCC(N)=O)C(=O)N[C@@H](CC(C)C)C(=O)N[C@@H](CCSC)C(=O)N[C@@H](Cc1c[nH]cn1)C(=O)N[C@@H](CCC(N)=O)C(=O)N[C@@H](CC(C)C)C(=O)N[C@H](Cc1c[nH]c2ccccc12)C(=O)N[C@@H](CCCCN)C(=O)N[C@@H](Cc1c[nH]c2ccccc12)C(=O)N[C@H](C(=O)N[C@@H](CCC(N)=O)C(=O)N[C@@H](CC(=O)O)C(=O)N[C@@H](C)C(=O)N[C@@H](CCCNC(=N)N)C(=O)N[C@@H](CCCNC(=N)N)C(=O)N[C@@H](CCCNC(=N)N)C(=O)N[C@@H](C)C(=O)N[C@@H](Cc1c[nH]c2ccccc12)C(=O)N[C@@H](CC(C)C)C(=O)N[C@@H](Cc1c[nH]cn1)C(=O)N[C@@H](CCCCN)C(=O)N[C@@H](CC(C)C)C(=O)N[C@H](C(=O)N[C@@H](C)C(=O)N[C@@H](CCC(=O)O)C(=O)N[C@H](C(=O)N[C@@H](Cc1c[nH]cn1)C(=O)N[C@H](C(=O)N[C@@H](C)C(=O)N[C@@H](CCC(=O)O)C(=O)N[C@H](C(N)=O)[C@@H](C)CC)[C@@H](C)O)[C@@H](C)CC)[C@@H](C)CC)[C@@H](C)CC` [compound 2003, L11, dW12, W23-LA-PTH(5-36)-2003] (H-IQLMHQL[dW]KWIQDARRRAWLHKLIAEIHTAEI-NH2; N-terminus assumed) the “Reduction of basal cAMP, % vehicle, After ligand washout” value was 64 % vehicle and the “Reduction of basal cAMP, % vehicle, Ligand @ −6M” value was 66 % vehicle.
With `CCCC[C@H](NC(=O)[C@@H](N)CC(C)C)C(=O)N[C@@H](Cc1c[nH]cn1)C(=O)N[C@@H](CCC(N)=O)C(=O)N[C@@H](CC(C)C)C(=O)N[C@H](Cc1c[nH]c2ccccc12)C(=O)N[C@@H](CCCCN)C(=O)N[C@@H](Cc1c[nH]c2ccccc12)C(=O)N[C@H](C(=O)N[C@@H](CCC(N)=O)C(=O)N[C@@H](CC(=O)O)C(=O)N[C@@H](C)C(=O)N[C@@H](CCCNC(=N)N)C(=O)N[C@@H](CCCNC(=N)N)C(=O)N[C@@H](CCCNC(=N)N)C(=O)N[C@@H](C)C(=O)N[C@@H](Cc1c[nH]c2ccccc12)C(=O)N[C@@H](CC(C)C)C(=O)N[C@@H](Cc1c[nH]cn1)C(=O)N[C@@H](CCCCN)C(=O)N[C@@H](CC(C)C)C(=O)N[C@H](C(=O)N[C@@H](C)C(=O)N[C@@H](CCC(=O)O)C(=O)N[C@H](C(=O)N[C@@H](Cc1c[nH]cn1)C(=O)N[C@H](C(=O)N[C@@H](C)C(=O)N[C@@H](CCC(=O)O)C(=O)N[C@H](C(N)=O)[C@@H](C)CC)[C@@H](C)O)[C@@H](C)CC)[C@@H](C)CC)[C@@H](C)CC` [compound 1997, Nle8,L11, dW12, W23-LA-PTH(7-36)-1997] (H-L[Nle]HQL[dW]KWIQDARRRAWLHKLIAEIHTAEI-NH2; N-terminus assumed) the “Reduction of basal cAMP, % vehicle, After ligand washout” value was 71 % vehicle and the “Reduction of basal cAMP, % vehicle, Ligand @ −6M” value was 70 % vehicle.
With `CCCC[C@H](NC(=O)[C@H](CC(C)C)NC(=O)[C@H](CCC(N)=O)NC(=O)[C@@H](N)[C@@H](C)CC)C(=O)N[C@@H](Cc1c[nH]cn1)C(=O)N[C@@H](CCC(N)=O)C(=O)N[C@@H](CC(C)C)C(=O)N[C@H](Cc1c[nH]c2ccccc12)C(=O)N[C@@H](CCCCN)C(=O)N[C@@H](Cc1c[nH]c2ccccc12)C(=O)N[C@H](C(=O)N[C@@H](CCC(N)=O)C(=O)N[C@@H](CC(=O)O)C(=O)N[C@@H](C)C(=O)N[C@@H](CCCNC(=N)N)C(=O)N[C@@H](CCCNC(=N)N)C(=O)N[C@@H](CCCNC(=N)N)C(=O)N[C@@H](C)C(=O)N[C@@H](Cc1c[nH]c2ccccc12)C(=O)N[C@@H](CC(C)C)C(=O)N[C@@H](Cc1c[nH]cn1)C(=O)N[C@@H](CCCCN)C(=O)N[C@@H](CC(C)C)C(=O)N[C@H](C(=O)N[C@@H](C)C(=O)N[C@@H](CCC(=O)O)C(=O)N[C@H](C(=O)N[C@@H](Cc1c[nH]cn1)C(=O)N[C@H](C(=O)N[C@@H](C)C(=O)N[C@@H](CCC(=O)O)C(=O)N[C@H](C(N)=O)[C@@H](C)CC)[C@@H](C)O)[C@@H](C)CC)[C@@H](C)CC)[C@@H](C)CC` [compound 1999, Nle8, L11, dW12, W23-LA-PTH(5-36)-1999] (H-IQL[Nle]HQL[dW]KWIQDARRRAWLHKLIAEIHTAEI-NH2; N-terminus assumed) the “Reduction of basal cAMP, % vehicle, After ligand washout” value was 62 % vehicle and the “Reduction of basal cAMP, % vehicle, Ligand @ −6M” value was 63 % vehicle.
For `CC[C@H](C)[C@H](NC(=O)[C@H](CCC(=O)O)NC(=O)[C@H](C)NC(=O)[C@@H](NC(=O)[C@H](Cc1c[nH]cn1)NC(=O)[C@@H](NC(=O)[C@H](CCC(=O)O)NC(=O)[C@H](C)NC(=O)[C@@H](NC(=O)[C@H](CC(C)C)NC(=O)[C@H](CCCCN)NC(=O)[C@H](Cc1c[nH]cn1)NC(=O)[C@H](CC(C)C)NC(=O)[C@H](Cc1c[nH]c2ccccc12)NC(=O)[C@H](C)NC(=O)[C@H](CCCNC(=N)N)NC(=O)[C@H](CCCNC(=N)N)NC(=O)[C@H](CCCNC(=N)N)NC(=O)[C@H](C)NC(=O)[C@H](CC(=O)O)NC(=O)[C@H](CCC(N)=O)NC(=O)[C@@H](NC(=O)[C@H](Cc1c[nH]c2ccccc12)NC(=O)[C@H](CCCCN)NC(=O)[C@@H](Cc1c[nH]c2ccccc12)NC(=O)[C@H](CC(C)C)NC(=O)[C@H](CCC(N)=O)NC(=O)[C@H](Cc1c[nH]cn1)NC(=O)[C@H](CCSC)NC(=O)[C@@H](N)CC(C)C)[C@@H](C)CC)[C@@H](C)CC)[C@@H](C)CC)[C@@H](C)O)C(N)=O` [compound 2001, L11, dW12, W23-LA-PTH(7-36)-2001] (H-LMHQL[dW]KWIQDARRRAWLHKLIAEIHTAEI-NH2; N-terminus assumed), the “Reduction of basal cAMP, % vehicle, After ligand washout” value was 65 % vehicle and the “Reduction of basal cAMP, % vehicle, Ligand @ −6M” value was 66 % vehicle.

From patent US20190119348A1, “PARATHYROID HORMONE RECEPTOR 1 ANTAGONIST AND INVERSE AGONIST POLYPEPTIDES AND METHODS OF THEIR USE” (The General Hospital Corporation, priority 2016, published 2019)
